Assay results taken from patent US20210122757A1, “SPIROCYCLIC COMPOUNDS AS MODULATORS OF INDOLEAMINE 2,3-DIOXYGENASE” (PHENEX DISCOVERY VERWALTUNGS-GMBH, priority 2018, published 2021).

Target: T1, Indoleamine 2,3-dioxygenase (Homo sapiens, UniProt P14902)
T1 construct: endogenous in cells; host or cells: SKOV-3 (ATCC HTB-77), stimulated with 50 ng/ml interferon gamma
Test: SKOV-3 Cellular Indoleamine 2,3-dioxygenase Assay
Details: SKOV-3 cells, 50 ng/ml Interferon gamma, 100 μM L-Tryptophan, 24 hours, N-Formylkynurenin fluorescence detection; read-out: cell based activity (IC50)
Description: SKOV-3 Cellular Indoleamine 2,3-dioxygenase Assay
SKOV-3 cells were obtained from the American Type Culture Collection (ATCC® HTB-77™) and maintained in McCoy's medium (Pan Biotech) supplemented with 10% fetal bovine serum and 1% Penicillin/Streptomycin. Cells were kept at 37° C. in a humidified incubator with 5% CO2. For assay preparation, cells were seeded at a density of 2*10^5/ml into black clear bottom 96 well plates in 100 μl medium/well supplemented with 50 ng/ml Interferon gamma (eBioscience, Thermo Fisher Scientific). After cells fully adhered to the plate, dilution series of compounds were added in medium containing additional L-Tryptophan to a final L-Tryptophan concentration of 100 μM. The cells were incubated for 24 hours. Detection of produced N-Formylkynurenin was performed by addition of 3-Methylpiperidine to a final concentration of 200 mM. The plates were sealed and heated to 65° C. for 20 minutes in a water bath. After cooling the fluorescence of each well was recorded with a Victor™X4 (PerkinElmer) plate reader at an emission wavelength of 535 nm and excitation at 405 nm (Tomek et al.; Anal Bioanal Chem (2013) 405:2515-2524, Tomek et al.; Biochim Biophys Acta. 2015 September; 1850(9):1772-80).

T1 sequence (P14902 whole entry): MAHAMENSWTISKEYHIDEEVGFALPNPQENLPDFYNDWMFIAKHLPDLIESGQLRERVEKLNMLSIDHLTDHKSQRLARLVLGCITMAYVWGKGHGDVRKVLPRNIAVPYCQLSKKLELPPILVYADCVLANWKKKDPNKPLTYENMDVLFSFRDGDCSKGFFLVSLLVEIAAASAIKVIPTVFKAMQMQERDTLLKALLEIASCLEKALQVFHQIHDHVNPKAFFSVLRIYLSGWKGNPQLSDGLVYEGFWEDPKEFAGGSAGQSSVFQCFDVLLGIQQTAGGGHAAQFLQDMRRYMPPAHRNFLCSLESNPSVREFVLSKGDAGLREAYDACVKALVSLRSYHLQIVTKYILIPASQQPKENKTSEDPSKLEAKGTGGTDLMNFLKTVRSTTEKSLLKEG

Compound `Cc1ccc(NC(=O)C(C)C2CCC3(CC2)COc2cc(C(F)(F)F)ccc23)cc1` (single isomer, unassigned) [Example 8e, N-(p-Tolyl)-2-(6-(trifluoromethyl)-2H-spiro[benzofuran-3,1′-cyclohexan]-4′-yl)propanamide] has an IC50 of no less than 50 nM.
In the case of `CC1CCC(NC(=O)C(C)C2CCC3(CC2)COc2cc(C(F)(F)F)ccc23)CC1` (single isomer, unassigned) [Example 9b, N-((1r,4r)-4-Methylcyclohexyl)-2-(6-(trifluoromethyl)-2H-spiro[benzofuran-3,1′-cyclohexan]-4′-yl)propanamide], the IC50 is reported as no less than 50 nM.
`CC1CCC(NC(=O)C(C)C2CCC3(CC2)COc2cc(C(F)(F)F)ccc23)CC1` (single isomer, unassigned) [Example 9c, N-((1r,4r)-4-Methylcyclohexyl)-2-(6-(trifluoromethyl)-2H-spiro[benzofuran-3,1′-cyclohexan]-4′-yl)propanamide] gave an IC50 of no less than 50 nM.
With `CC1CCC(NC(=O)C(C)C2CCC3(CC2)COc2cc(C(F)(F)F)ccc23)CC1` (single isomer, unassigned) [Example 9d, N-((1r,4r)-4-Methylcyclohexyl)-2-(6-(trifluoromethyl)-2H-spiro[benzofuran-3,1′-cyclohexan]-4′-yl)propanamide] the IC50 was no less than 50 nM.
`CC1CCC(NC(=O)C(C)C2CCC3(CC2)COc2cc(C(F)(F)F)ccc23)CC1` (single isomer, unassigned) [Example 9e, N-((1r,4r)-4-Methylcyclohexyl)-2-(6-(trifluoromethyl)-2H-spiro[benzofuran-3,1′-cyclohexan]-4′-yl)propanamide] gave an IC50 of less than 50 nM.
For `CCC(C(=O)Nc1ccc(Cl)cn1)C1CCC2(CC1)COc1cc(C(F)(F)F)ccc12` (single isomer, unassigned) [Example 10b, N-(5-chloropyridin-2-yl)-2-(6-(trifluoromethyl)-2H-spiro[benzofuran-3,1′-cyclohexan]-4′-yl)butanamide], the IC50 was less than 50 nM.
For `CCC(C(=O)Nc1ccc(Cl)cn1)C1CCC2(CC1)COc1cc(C(F)(F)F)ccc12` (single isomer, unassigned) [Example 10c, N-(5-chloropyridin-2-yl)-2-(6-(trifluoromethyl)-2H-spiro[benzofuran-3,1′-cyclohexan]-4′-yl)butanamide], the IC50 was less than 50 nM.
For `CCC(C(=O)Nc1ccc(Cl)cn1)C1CCC2(CC1)COc1cc(C(F)(F)F)ccc12` (single isomer, unassigned) [Example 10d, N-(5-chloropyridin-2-yl)-2-(6-(trifluoromethyl)-2H-spiro[benzofuran-3,1′-cyclohexan]-4′-yl)butanamide], the IC50 was less than 50 nM.
Compound `CCC(C(=O)Nc1ccc(Cl)cn1)C1CCC2(CC1)COc1cc(C(F)(F)F)ccc12` (single isomer, unassigned) [Example 10e, N-(5-chloropyridin-2-yl)-2-(6-(trifluoromethyl)-2H-spiro[benzofuran-3,1′-cyclohexan]-4′-yl)butanamide] has an IC50 of no less than 50 nM.
With `CC(c1nc2cc(Cl)ccc2[nH]1)C1CCC2(CC1)COc1cc(C(F)(F)F)ccc12` (single isomer, unassigned) [Example 11b, 5-Chloro-2-(1-(6-(trifluoromethyl)-2H-spiro[benzofuran-3,1′-cyclohexan]-4′-yl)ethyl)-1H-benzo[d]imidazole] the IC50 was no less than 50 nM.
`CC(c1nc2cc(Cl)ccc2[nH]1)C1CCC2(CC1)COc1cc(C(F)(F)F)ccc12` (single isomer, unassigned) [Example 11c, 5-Chloro-2-(1-(6-(trifluoromethyl)-2H-spiro[benzofuran-3,1′-cyclohexan]-4′-yl)ethyl)-1H-benzo[d]imidazole] was tested, and the IC50 was less than 50 nM.
In the case of `CC(c1nc2cc(Cl)ccc2[nH]1)C1CCC2(CC1)COc1cc(C(F)(F)F)ccc12` (single isomer, unassigned) [Example 11d, 5-Chloro-2-(1-(6-(trifluoromethyl)-2H-spiro[benzofuran-3,1′-cyclohexan]-4′-yl)ethyl)-1H-benzo[d]imidazole], the IC50 is reported as less than 50 nM.
Compound `CC(c1nc2cc(Cl)ccc2[nH]1)C1CCC2(CC1)COc1cc(C(F)(F)F)ccc12` (single isomer, unassigned) [Example 11e, 5-Chloro-2-(1-(6-(trifluoromethyl)-2H-spiro[benzofuran-3,1′-cyclohexan]-4′-yl)ethyl)-1H-benzo[d]imidazole] has an IC50 of less than 50 nM.
`CC(C(=O)NC1Cc2ccc(F)cc21)C1CCC2(CC1)COc1cc(C(F)(F)F)ccc12` (single isomer, unassigned) [Example 12a] gave an IC50 of no less than 50 nM.
`CC(C(=O)NC1Cc2ccc(F)cc21)C1CCC2(CC1)COc1cc(C(F)(F)F)ccc12` (single isomer, unassigned) [Example 12b] showed an IC50 of no less than 50 nM.
With `O=C(C[C@H]1CC[C@@]2(CC1)COc1cc(C(F)(F)F)ccc12)Nc1ccc(Cl)cc1F` (single isomer, unassigned) [Example 14a, N-(4-chloro-2-fluorophenyl)-2-(6-(trifluoromethyl)-2H-spiro[benzofuran-3,1′-cyclohexan]-4′-yl)acetamide] the IC50 was less than 50 nM.
Compound `O=C(C[C@H]1CC[C@@]2(CC1)COc1cc(C(F)(F)F)ccc12)Nc1ccc(Cl)cc1F` (single isomer, unassigned) [Example 14b, N-(4-chloro-2-fluorophenyl)-2-(6-(trifluoromethyl)-2H-spiro[benzofuran-3,1′-cyclohexan]-4′-yl)acetamide] has an IC50 of no less than 50 nM.
`C[C@H](C(=O)Nc1ccc(Cl)cc1)[C@H]1CC[C@@]2(CC1)COc1cc(C(F)(F)F)ccc12` [Example 3b, (S)—N-(4-Chlorophenyl)-2-((3S,4′r)-6-(trifluoromethyl)-2H-spiro[benzofuran-3,1′-cyclohexan]-4′-yl)propanamide] was tested, and the IC50 was less than 50 nM.
Compound `C[C@@H](C(=O)Nc1ccc(Cl)cc1)[C@H]1CC[C@@]2(CC1)COc1cc(C(F)(F)F)ccc12` [Example 3c, (R)—N-(4-Chlorophenyl)-2-((3R,4′r)-6-(trifluoromethyl)-2H-spiro[benzofuran-3,1′-cyclohexan]-4′-yl)propanamide] has an IC50 of less than 50 nM.
With `C[C@H](C(=O)Nc1ccc(Cl)cc1)[C@H]1CC[C@]2(CC1)COc1cc(C(F)(F)F)ccc12` [Example 3d, (S)—N-(4-Chlorophenyl)-2-((3R,4′s)-6-(trifluoromethyl)-2H-spiro[benzofuran-3,1′-cyclohexan]-4′-yl)propanamide] the IC50 was less than 50 nM.
`C[C@@H](C(=O)Nc1ccc(Cl)cc1)[C@H]1CC[C@]2(CC1)COc1cc(C(F)(F)F)ccc12` [Example 3e, (R)—N-(4-chlorophenyl)-2-((3S,4′s)-6-(trifluoromethyl)-2H-spiro[benzofuran-3,1′-cyclohexan]-4′-yl)propanamide] showed an IC50 of no less than 50 nM.
For `C[C@H](C(=O)Nc1ccc(Cl)cc1)[C@H]1CC[C@]2(CC1)COc1cc(C(F)F)ccc12` [Example 13, (S)—N-(4-chlorophenyl)-2-((3R,4′s)-6-(difluoromethyl)-2H-spiro[benzofuran-3,1′-cyclohexan]-4′-yl)propanamide], the IC50 was less than 50 nM.
